In ChEMBL document CHEMBL1201862, “PubChem BioAssay data set” (2004):
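Each compound was tested at five concentrations against cells in 96-well plates for 48 hours. Abbreviation: GI50, concentration required for 50% inhibition of growth.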 Calls of active or inactive are those of the source. Cut-off read from the data, not from the text of the source: active = GI50 up to about 1.1 µM and inactive = higher.

What was measured:
Assay in all cases: DTP human tumour cell line panel, 48 h
T47D = system: T47D
RPMI-8226 = system: RPMI-8226
NCI-H23 = system: NCI-H23
SN12C = system: SN12C
NCI-H460 = system: NCI-H460
UACC-257 = system: UACC-257
UACC-62 = system: UACC-62
HL-60 = system: HL-60
Malme-3M = system: Malme-3M
MCF7 = system: MCF7
SNB-75 = system: SNB-75
SF-295 = system: SF-295
SF-268 = system: SF-268
SF-539 = system: SF-539
BT-549 = system: BT-549
CAKI-1 = system: CAKI-1
TK-10 = system: TK-10
ACHN = system: ACHN
A549 = system: A549
SK-MEL-5 = system: SK-MEL-5
K562 = system: K562
UO-31 = system: UO-31
SK-OV-3 = system: SK-OV-3
PC-3 = system: PC-3
CCRF-CEM = system: CCRF-CEM
M14 = system: M14
HCT-116 = system: HCT-116
SK-MEL-2 = system: SK-MEL-2
SNB-19 = system: SNB-19
HOP-92 = system: HOP-92
RXF 393 = system: RXF 393
EKVX = system: EKVX
OVCAR-5 = system: OVCAR-5
Hs-578T = system: Hs-578T
SW-620 = system: SW-620
COLO 205 = system: COLO 205
MDA-MB-435 = system: MDA-MB-435
KM12 = system: KM12
786-0 = system: 786-0
MDA-N = system: MDA-N
DU-145 = system: DU-145
NCI-H226 = system: NCI-H226
U-251 = system: U-251
NCI/ADR-RES = system: NCI/ADR-RES
HT-29 = system: HT-29
IGROV-1 = system: IGROV-1
OVCAR-8 = system: OVCAR-8
HCT-15 = system: HCT-15
MOLT-4 = system: MOLT-4
A498 = system: A498
OVCAR-4 = system: OVCAR-4
SK-MEL-28 = system: SK-MEL-28
SR = system: SR
HCC 2998 = system: HCC 2998
NCI-H522 = system: NCI-H522
OVCAR-3 = system: OVCAR-3
HOP-62 = system: HOP-62
LOX IMVI = system: LOX IMVI
MDA-MB-231 = system: MDA-MB-231

SMILES: CN1B(c2ccccc2)N(C)C(=O)N(C)C1=O
- GI50 (T47D): > 100 µM (inactive)
- GI50 (RPMI-8226): > 100 µM (inactive)
- GI50 (NCI-H23): > 100 µM (inactive)
- GI50 (SN12C): > 100 µM (inactive)
- GI50 (NCI-H460): > 100 µM (inactive)
- GI50 (UACC-257): > 100 µM (inactive)
- GI50 (UACC-62): > 100 µM (inactive)
- GI50 (HL-60): > 100 µM (inactive)
- GI50 (Malme-3M): > 100 µM (inactive)
- GI50 (MCF7): > 100 µM (inactive)
- GI50 (SNB-75): 18.4 µM (inactive)
- GI50 (SF-295): > 100 µM (inactive)
- GI50 (SF-268): > 100 µM (inactive)
- GI50 (SF-539): > 100 µM (inactive)
- GI50 (BT-549): > 100 µM (inactive)
- GI50 (CAKI-1): 52.2 µM (inactive)
- GI50 (TK-10): > 100 µM (inactive)
- GI50 (ACHN): > 100 µM (inactive)
- GI50 (A549): > 100 µM (inactive)
- GI50 (SK-MEL-5): > 100 µM (inactive)
- GI50 (K562): > 100 µM (inactive)
- GI50 (UO-31): 20.5 µM (inactive)
- GI50 (SK-OV-3): > 100 µM (inactive)
- GI50 (PC-3): > 100 µM (inactive)
- GI50 (CCRF-CEM): > 100 µM (inactive)
- GI50 (M14): > 100 µM (inactive)
- GI50 (HCT-116): > 100 µM (inactive)
- GI50 (SK-MEL-2): > 100 µM (inactive)
- GI50 (SNB-19): > 100 µM (inactive)
- GI50 (HOP-92): > 100 µM (inactive)
- GI50 (RXF 393): > 100 µM (inactive)
- GI50 (EKVX): > 100 µM (inactive)
- GI50 (OVCAR-5): > 100 µM (inactive)
- GI50 (Hs-578T): 81.3 µM (inactive)
- GI50 (SW-620): > 100 µM (inactive)
- GI50 (COLO 205): > 100 µM (inactive)
- GI50 (MDA-MB-435): > 100 µM (inactive)
- GI50 (KM12): > 100 µM (inactive)
- GI50 (786-0): > 100 µM (inactive)
- GI50 (MDA-N): > 100 µM (inactive)
- GI50 (DU-145): > 100 µM (inactive)
- GI50 (NCI-H226): > 100 µM (inactive)
- GI50 (U-251): > 100 µM (inactive)
- GI50 (NCI/ADR-RES): > 100 µM (inactive)
- GI50 (HT-29): > 100 µM (inactive)
- GI50 (IGROV-1): > 100 µM (inactive)
- GI50 (OVCAR-8): > 100 µM (inactive)
- GI50 (HCT-15): > 100 µM

SMILES: CC(=O)Nc1oc(C)c(C)c1S(=O)(=O)c1ccc(Cl)cc1
- GI50 (T47D): 52.7 µM (inactive)
- GI50 (RPMI-8226): 35.6 µM (inactive)
- GI50 (NCI-H23): 43.3 µM (inactive)
- GI50 (NCI-H460): 35.7 µM (inactive)
- GI50 (UACC-257): 41 µM (inactive)
- GI50 (UACC-62): 42 µM (inactive)
- GI50 (MOLT-4): 39.4 µM (inactive)
- GI50 (HL-60): 97.7 µM (inactive)
- GI50 (Malme-3M): 40.2 µM (inactive)
- GI50 (MCF7): 19.5 µM (inactive)
- GI50 (SNB-75): 34.4 µM (inactive)
- GI50 (SF-295): 44.6 µM (inactive)
- GI50 (SF-268): 33.7 µM (inactive)
- GI50 (SF-539): 26.7 µM (inactive)
- GI50 (BT-549): 29.2 µM (inactive)
- GI50 (TK-10): 60.5 µM (inactive)
- GI50 (ACHN): 46.2 µM (inactive)
- GI50 (A549): 52 µM (inactive)
- GI50 (SK-MEL-5): 27.8 µM (inactive)
- GI50 (K562): 77.1 µM (inactive)
- GI50 (UO-31): 39 µM (inactive)
- GI50 (SK-OV-3): 52.5 µM (inactive)
- GI50 (PC-3): 22.1 µM (inactive)
- GI50 (CCRF-CEM): 79.8 µM (inactive)
- GI50 (M14): 63.8 µM (inactive)
- GI50 (HCT-116): 55 µM (inactive)
- GI50 (SK-MEL-2): 28.4 µM (inactive)
- GI50 (A498): > 100 µM (inactive)
- GI50 (SNB-19): > 100 µM (inactive)
- GI50 (HOP-92): > 100 µM (inactive)
- GI50 (RXF 393): 69.7 µM (inactive)
- GI50 (EKVX): 39.4 µM (inactive)
- GI50 (OVCAR-5): > 100 µM (inactive)
- GI50 (Hs-578T): 33.4 µM (inactive)
- GI50 (SW-620): > 100 µM (inactive)
- GI50 (COLO 205): 72.8 µM (inactive)
- GI50 (MDA-MB-435): 33.5 µM (inactive)
- GI50 (KM12): 39.4 µM (inactive)
- GI50 (786-0): 98.9 µM (inactive)
- GI50 (DU-145): 85.3 µM (inactive)
- GI50 (OVCAR-4): 39.1 µM (inactive)
- GI50 (NCI-H226): 34.4 µM (inactive)
- GI50 (SK-MEL-28): 95.3 µM (inactive)
- GI50 (U-251): 92 µM (inactive)
- GI50 (NCI/ADR-RES): 36 µM (inactive)
- GI50 (HT-29): 49 µM (inactive)
- GI50 (SR): 51.5 µM (inactive)
- GI50 (IGROV-1): 70 µM (inactive)
- GI50 (OVCAR-8): 45.7 µM (inactive)
- GI50 (HCT-15): 41.8 µM
- GI50 (HCC 2998): 41.3 µM (inactive)
- GI50 (NCI-H522): 37.7 µM (inactive)
- GI50 (OVCAR-3): 27.5 µM (inactive)

SMILES: COc1ccc2c(c1)CCCN1CCc3cc(OC)c(OC)cc3C21 (stereo unspecified)
- GI50 (T47D): > 100 µM (inactive)
- GI50 (RPMI-8226): 71.4 µM (inactive)
- GI50 (SN12C): > 100 µM (inactive)
- GI50 (UACC-257): > 100 µM (inactive)
- GI50 (UACC-62): > 100 µM (inactive)
- GI50 (MOLT-4): 50.5 µM (inactive)
- GI50 (HL-60): 41.1 µM (inactive)
- GI50 (Malme-3M): > 100 µM (inactive)
- GI50 (MCF7): > 100 µM (inactive)
- GI50 (SNB-75): > 100 µM (inactive)
- GI50 (SF-295): 46.5 µM (inactive)
- GI50 (SF-268): > 100 µM (inactive)
- GI50 (SF-539): 35.5 µM (inactive)
- GI50 (BT-549): 4.09 µM (inactive)
- GI50 (CAKI-1): > 100 µM (inactive)
- GI50 (TK-10): > 100 µM (inactive)
- GI50 (ACHN): 84.1 µM (inactive)
- GI50 (A549): > 100 µM (inactive)
- GI50 (SK-MEL-5): > 100 µM (inactive)
- GI50 (K562): 61.7 µM (inactive)
- GI50 (UO-31): 25.5 µM (inactive)
- GI50 (SK-OV-3): > 100 µM (inactive)
- GI50 (PC-3): > 100 µM (inactive)
- GI50 (CCRF-CEM): > 100 µM (inactive)
- GI50 (M14): > 100 µM (inactive)
- GI50 (HCT-116): 76 µM (inactive)
- GI50 (SNB-19): > 100 µM (inactive)
- GI50 (HOP-62): > 100 µM (inactive)
- GI50 (EKVX): > 100 µM (inactive)
- GI50 (OVCAR-5): > 100 µM (inactive)
- GI50 (SW-620): > 100 µM (inactive)
- GI50 (COLO 205): > 100 µM (inactive)
- GI50 (MDA-MB-435): > 100 µM (inactive)
- GI50 (KM12): > 100 µM (inactive)
- GI50 (786-0): > 100 µM (inactive)
- GI50 (MDA-N): > 100 µM (inactive)
- GI50 (DU-145): > 100 µM (inactive)
- GI50 (NCI-H226): > 100 µM (inactive)
- GI50 (LOX IMVI): 77.1 µM (inactive)
- GI50 (SK-MEL-28): > 100 µM (inactive)
- GI50 (U-251): > 100 µM (inactive)
- GI50 (NCI/ADR-RES): 21.8 µM (inactive)
- GI50 (HT-29): 47.9 µM (inactive)
- GI50 (SR): > 100 µM (inactive)
- GI50 (IGROV-1): > 100 µM (inactive)
- GI50 (OVCAR-8): > 100 µM (inactive)
- GI50 (MDA-MB-231): > 100 µM (inactive)
- GI50 (HCT-15): > 100 µM
- GI50 (HCC 2998): 45.7 µM (inactive)
- GI50 (OVCAR-3): > 100 µM (inactive)
